Test results as given in US5451599A, “Complex salts of hematoporphyrin and of its derivatives, their synthesis, and therapeutic agent” (Wojskowa Akademia Techniczna im. Jaroslawa Dabrowskiego, priority 1991, dated 1995).

Key:
[1] = system: MA-104 (Rhesus monkey embryo kidney cancer cells); test: 48 h incubation with the salts: cell fluorescence, living cells, multiplication coefficient (Table 1); format: cell-based; conditions: 48 hs, 50 mcg/ml
Method: (§1) New compounds of formula 1 were tested on cell lines. Use was made of 9 different neoplastic cell lines which were incubated for 48 hs with various new salts of protoporphyrin and with a new salt of the conventionally applied HpD preparation/hematoporphyrin derivatives/obtained according to Lipson et al. All compounds were used in the form of aqueous solutions, at a concentration of 50 mcg/ml. Determination was made of:
(§2) 1/ Cell fluorescence /F/: after 48 hs incubation, the cells were washed away, the intensity of fluorescence was measured in a fluorescence microscope and was expressed on an arbitrary scale of 0-4 scores;
(§3) 2/ Percentage of living cells /P %/ after 48 hs incubation;
(§4) 3/ Cell multiplication coefficient /M/ in the presence of different preparations, expressed as: [formula]

PZ = test: as above; format: cell-based; conditions: 48 hs, 50 mcg/ml
Method: as §1, §2, §3, §4

CL = test: as above; format: cell-based; conditions: 48 hs, 50 mcg/ml
Method: as §1, §2, §3, §4

[2] = system: T-47D (breast cancer cells); test: 48 h incubation with the salts: cell fluorescence, living cells, multiplication coefficient (Table 3); format: cell-based, Human; conditions: 48 hs, 50 mcg/ml
Method: as §1, §2, §3, §4
T-47D breast cancer cells

[3] = system: Hela (cervix uteri cancer cells); test: 48 h incubation with the salts: cell fluorescence, living cells, multiplication coefficient (Table 1); format: cell-based, Human; conditions: 48 hs, 50 mcg/ml
Method: as §1, §2, §3, §4

[4] = system: GR (GRMT/F6, mammary gland cancer cells of GR-strain mice); test: 48 h incubation with the salts: cell fluorescence, living cells, multiplication coefficient (Table 2); format: cell-based, Murine; conditions: 48 hs, 50 mcg/ml
Method: as §1, §2, §3, §4
GRMT/F6 mammary gland cancer cells of GR-strain mice

[5] = system: HEp-2 (larynx cancer cells); test: 48 h incubation with the salts: cell fluorescence, living cells, multiplication coefficient (Table 3); format: cell-based, Human; conditions: 48 hs, 50 mcg/ml
Method: as §1, §2, §3, §4
Hep-2 larynx cancer cells

[6] = system: HBT-39/w (breast cancer cells); test: 48 h incubation with the salts: cell fluorescence, living cells, multiplication coefficient (Table 2); format: cell-based, Human; conditions: 48 hs, 50 mcg/ml
Method: as §1, §2, §3, §4

[7] = system: KB (oral cavity cancer cells); test: as above; format: cell-based, Human; conditions: 48 hs, 50 mcg/ml
Method: as §1, §2, §3, §4
KB oral cavity cancer cells

[8] = system: Mm (Mm5MT/C1, mammary gland cancer cells of C3H-strain mice); test: 48 h incubation with the salts: cell fluorescence, living cells, multiplication coefficient (Table 3); format: cell-based, Murine; conditions: Mm; 48 hs; 50 mcg/ml
Method: as §1, §2, §3, §4
mammary gland cancer cells of C3H-strain mice

| Compound | Cell fluorescence /F/ [1] | Cell multiplication coefficient /M/ [1] | Percentage of living cells /P %/ [1] [%] | Cell fluorescence /F/ (PZ) | Cell multiplication coefficient /M/ (PZ) | Percentage of living cells /P %/ (PZ) [%] | Cell fluorescence /F/ (CL) | Cell multiplication coefficient /M/ (CL) | Percentage of living cells /P %/ (CL) [%] | Cell fluorescence /F/ [2] | Cell multiplication coefficient /M/ [2] | Percentage of living cells /P %/ [2] [%] | Cell fluorescence /F/ [3] | Cell multiplication coefficient /M/ [3] | Percentage of living cells /P %/ [3] [%] | Cell fluorescence /F/ [4] | Cell multiplication coefficient /M/ [4] | Percentage of living cells /P %/ [4] [%] | Cell fluorescence /F/ [5] | Cell multiplication coefficient /M/ [5] | other results |
| --- | --- | --- | --- | --- | --- | --- | --- | --- | --- | --- | --- | --- | --- | --- | --- | --- | --- | --- | --- | --- | --- |
| l-arginine di/N-arginyl/-protoporphyrinate [PP/Arg/2 /Arg/2] | ++ | 0,42 | 31 | + | 0,10 | 10 | ++ | 0,03 | 4 | +++ | 0,40 | 40 | ++++ | 0,28 | 11 | +++ | 0,12 | 12 | + | 0,14 | Percentage of living cells /P %/ [5]: 5%; Cell fluorescence /F/ [6]: ++++; Cell multiplication coefficient /M/ [6]: 0,28; Percentage of living cells /P %/ [6]: 28%; Cell fluorescence /F/ [7]: +; Cell multiplication coefficient /M/ [7]: 0,16; Percentage of living cells /P %/ [7]: 16%; Cell fluorescence /F/ [8]: +++; Cell multiplication coefficient /M/ [8]: 0,38; Percentage of living cells /P %/ [8]: 12% |
| CSCCC(NC(C)C1=C(C)c2cc3[nH]c(cc4nc(cc5[nH]c(cc1n2)c(C)c5C(C)NC(CCSC)C(=O)O)C(C)=C4CCC(=O)O)c(CCC(=O)O)c3C)C(=O)O.N=C(N)NCCC[C@H](N)C(=O)O.N=C(N)NCCC[C@H](N)C(=O)O (stereo not drawn) [PP/Met/2 /Arg/2, l-arginine di/N-methionyl/-protoporphyrinate] | ++ | 0,33 | 22 | + | 0,08 | 8 | + | 0 | 0 | +++ | 0,10 | 10 | ++++ | 0,05 | 5 | ++++ | 0,22 | 25 | +++ | 0 | Percentage of living cells /P %/ [5]: 0%; Cell fluorescence /F/ [6]: ++++; Cell multiplication coefficient /M/ [6]: 0,08; Percentage of living cells /P %/ [6]: 8%; Cell fluorescence /F/ [7]: ++; Cell multiplication coefficient /M/ [7]: 0,12; Percentage of living cells /P %/ [7]: 5%; Cell fluorescence /F/ [8]: ++++; Cell multiplication coefficient /M/ [8]: 0,08; Percentage of living cells /P %/ [8]: 8% |
| CC1=C(CCC(=O)O)c2cc3[nH]c(cc4nc(cc5[nH]c(cc1n2)c(C(C)NC(Cc1ccccc1)C(=O)O)c5C)C(C(C)NC(Cc1ccccc1)C(=O)O)=C4C)c(C)c3CCC(=O)O.N=C(N)NCCC[C@H](N)C(=O)O.N=C(N)NCCC[C@H](N)C(=O)O (stereo not drawn) [PP/Fen/2 /Arg/2, l-arginine di/N-phenylalanyl/protoporphyrinate] | ++ | 0,35 | 35 | + | 0,08 | 8 | ++ | 0 | 0 | + | 0,60 | 60 | +++ | 0,14 | 5 | +++ | 0 | 0 | ++ | 0,08 | Percentage of living cells /P %/ [5]: 3%; Cell fluorescence /F/ [6]: ++++; Cell multiplication coefficient /M/ [6]: 0,11; Percentage of living cells /P %/ [6]: 11%; Cell fluorescence /F/ [7]: ++; Cell multiplication coefficient /M/ [7]: 0,12; Percentage of living cells /P %/ [7]: 12%; Cell fluorescence /F/ [8]: ++++; Cell multiplication coefficient /M/ [8]: 0,37; Percentage of living cells /P %/ [8]: 12% |
| CC1=C(CCC(=O)O)c2cc3[nH]c(cc4nc(cc5[nH]c(cc1n2)c(C(C)NC(CC(=O)O)C(=O)O)c5C)C(C(C)NC(CC(=O)O)C(=O)O)=C4C)c(C)c3CCC(=O)O.N=C(N)NCCC[C@H](N)C(=O)O.N=C(N)NCCC[C@H](N)C(=O)O (stereo not drawn) [PP/Asp/2 /Arg/2, l-arginine di/N-aspartyl/-protoporphyrinate] | +++ | 0,52 | 17 | + | 0,15 | 14 | + | 0,55 | 55 | ++++ | 0,92 | 65 | +++ | 0,50 | 38 | ++ | 0,73 | 25 | ++++ | 0,40 | Percentage of living cells /P %/ [5]: 47%; Cell fluorescence /F/ [6]: +++; Cell multiplication coefficient /M/ [6]: 0,81; Percentage of living cells /P %/ [6]: 48%; Cell fluorescence /F/ [7]: ++; Cell multiplication coefficient /M/ [7]: 0,12; Percentage of living cells /P %/ [7]: 16%; Cell fluorescence /F/ [8]: +++; Cell multiplication coefficient /M/ [8]: 0,92; Percentage of living cells /P %/ [8]: 70% |
| CC1=C(CCC(=O)O)c2cc3[nH]c(cc4nc(cc5[nH]c(cc1n2)c(C(C)NC(CS)C(=O)O)c5C)C(C(C)NC(CS)C(=O)O)=C4C)c(C)c3CCC(=O)O.N=C(N)NCCC[C@H](N)C(=O)O.N=C(N)NCCC[C@H](N)C(=O)O (stereo not drawn) [PP/Cys/2 /Arg/2, l-arginine di/N-cysteyl/-protoporphyrinate] | ++ | 0,16 | 11 | + | 0,40 | 40 | - | 0,30 | 30 | + | 0,84 | 26 | ++ | 0,43 | 55 | +++ | 0,75 | 50 | ++++ | 0,32 | Percentage of living cells /P %/ [5]: 60%; Cell fluorescence /F/ [6]: +; Cell multiplication coefficient /M/ [6]: 0,53; Percentage of living cells /P %/ [6]: 42%; Cell fluorescence /F/ [7]: +; Cell multiplication coefficient /M/ [7]: 0,12; Percentage of living cells /P %/ [7]: 12%; Cell fluorescence /F/ [8]: +++; Cell multiplication coefficient /M/ [8]: 0,73; Percentage of living cells /P %/ [8]: 40% |
| CC1=C(CCC(=O)O)c2cc3[nH]c(cc4nc(cc5[nH]c(cc1n2)c(C(C)NC(C)C(=O)O)c5C)C(C(C)NC(C)C(=O)O)=C4C)c(C)c3CCC(=O)O.N=C(N)NCCC[C@H](N)C(=O)O.N=C(N)NCCC[C@H](N)C(=O)O (stereo not drawn) [PP/Ala/2 /Arg/2, l-arginine di/N-alanyl/-protoporphyrinate] | ++ | 0,50 | 50 | ++ | 0,15 | 15 | - | 0,30 | 30 | +++ | 0,82 | 85 | + | 0,11 | 11 | + | 0,50 | 50 | ++ | 0,21 | Percentage of living cells /P %/ [5]: 21%; Cell fluorescence /F/ [6]: ++; Cell multiplication coefficient /M/ [6]: 0,33; Percentage of living cells /P %/ [6]: 17%; Cell fluorescence /F/ [7]: +++; Cell multiplication coefficient /M/ [7]: 0; Percentage of living cells /P %/ [7]: 0%; Cell fluorescence /F/ [8]: +++; Cell multiplication coefficient /M/ [8]: 0,84; Percentage of living cells /P %/ [8]: 86% |
